Test results published in patent US20250034130A1, “Crystal Form of Tolebrutinib, Preparation Method Therefor and Use Thereof” (Principia Biopharma Inc., priority 2021, published 2025).
Entries after “also recorded” stand apart in the source; their conditions may differ.

Assays:
Format in all cases: physicochemical
[1] = Physical and chemical stability on storage in opened packages (purity by UPLC, solid form by XRPD); conditions: for Chemical purity after storage (in words): 60° C./75% RH (b74 also name 80° C. and light)
Procedure: X-ray powder diffraction patterns in the present disclosure were acquired by a Bruker X-ray powder diffractometer. The parameters of the X-ray powder diffraction method of the present disclosure are as follows: • X-Ray: Cu, Kα • Kα1 (Å): 1.54060; Kα2 (Å): 1.54439 • Kα2/Kα1 intensity ratio: 0.50
(§1) The related substance in the present disclosure was detected by UPLC and the parameters are shown below.
Said “room temperature” is not a specific temperature, but a temperature range of 10-30° C. Said “open packaged” is putting the sample into a glass vial, covering the vial with aluminum foil, and punching 5-10 holes on the foil.
(§2) Form CSII of the present disclosure and the prior art amorphous form were weighed and stored under 25° C./60% RH, 40° C./75% RH and 60° C./75% RH conditions, in opened packages, respectively. The purity and solid form were determined by UPLC and XRPD. The results are listed in Table 3, and the overlaid XRPD patterns of Form CSII before and after storage for stability evaluation are shown in FIG. 4.
as §2, with “CSIII” for “CSII”, “10,” for “3,”, “9.” for “4.”
as §2, with “CSIV” for “CSII”, “C./60%” for “C./60% RH, 40° C./75%”, “40°” for “60°”, “16,” for “3,”, “15.” for “4.”

[2] = Stability at high temperature (80° C., 2 days, purity by UPLC); conditions: for Purity change / Chemical purity (in words): 2 days; for Purity change: glass vial with cap
Procedure: as §1
Certain amounts of Form CSII of the present disclosure and the prior art amorphous form were weighted and stored at 80° C. for 2 days, and the purities of the solids before and after storage were determined by UPLC, the results are as shown in Table 4.
Certain amounts of Form CSIII of the present disclosure and the prior art amorphous form were weighted and stored at 80° C. for 2 days, and the purities of the solids before and after storage were determined by UPLC, the results are as shown in Table 11.
Certain amounts of Form CSIV of the present disclosure and the prior art amorphous form were stored at 80° C. for 2 days, and the purities of the solids before and after storage were determined by UPLC, the results are as shown in Table 17.

[3] = Hygroscopicity by DVS (0% RH-95% RH-0% RH at 25° C.); conditions: for Weight gain at 80% RH: DVS; for Weight gain at 80% RH / Hygroscopicity class: 25° C.; for Hygroscopicity class: weight gain at 80% RH
Procedure: DVS was measured via an SMS (Surface Measurement Systems Ltd.) intrinsic DVS instrument.
Parameters for DVS method are as follows: • Temperature: 25° C. • Gas and flow rate: nitrogen, 200 mL/min • RH range: 0% RH to 95% RH • ^1H NMR were collected from a Bruker Avance II DMX 400M HZ NMR spectrometer. 1-5 mg of sample was weighed and dissolved in 0.5 mL of deuterated dimethyl sulfoxide to obtain a solution with a concentration of 2-10 mg/mL.
Certain amounts of Form CSII of the present disclosure and the prior art amorphous form were sampled for hygroscopicity tests using DVS instrument. The weight change at each relative humidity was recorded during the cycle of 0% RH-95% RH-0% RH at 25° C.
Description and definition of hygroscopicity (general notice 9103 drug hygroscopicity test guidelines in 2020 edition of Chinese Pharmacopoeia, experimental condition: 25±1° C., 80±2% RH):
Certain amounts of Form CSIII of the present disclosure and the prior art amorphous form were sampled for hygroscopicity tests using DVS instrument. The weight change at each relative humidity was recorded during the cycle of 0% RH-95% RH-0% RH at 25° C.
Certain amounts of Form CSIV of the present disclosure and the prior art amorphous form were sampled for hygroscopicity tests using DVS instrument. The weight change at each relative humidity was recorded during the cycle of 0% RH-95% RH-0% RH at 25° C.

[4] = Light stability (Chinese Pharmacopoeia method, purity by UPLC); conditions: light not less than 1.2×10^6 lux-hr, near-UV not less than 200 W-hr/m^2; for Purity change: 1 week; for Chemical purity (in words): about 1 week
Text: as §1
(§3) Certain amounts of Form CSII of the present disclosure and the prior art amorphous form were weighted and stored for about 1 week, in accordance with the method of the Chinese Pharmacopoeia, under the condition that the total illumination of the light source was not less than 1.2×106 lux-hr and the energy of the near-ultraviolet lamp was not less than 200 W-hr/m^2, the purities of the solids before and after storage were measured by UPLC and the results are shown in Table 5.
as §3, with “CSIII” for “CSII”, “1.2×10^6” for “1.2×106”, “12.” for “5.”
as §3, with “CSIV” for “CSII”, “1.2×10^6” for “1.2×106”, “18.” for “5.”

[5] = Stability of crystalline form in tablet formulation process (XRPD before and after); conditions: tablets per Table 7 and Table 8, XRPD
Procedure: According to the formulation and process in Table 7 and Table 8, the tablets were prepared with an appropriate amount of Form CSII of the present disclosure. XRPD was tested before and after formulation.
According to the formulation and process in Table 7 and Table 8, the tablets were prepared with an appropriate amount of Form CSIII of the present disclosure. XRPD was tested before and after formulation.
According to the formulation and process in Table 7 and Table 8, the tablets were prepared with an appropriate amount of Form CSIV of the present disclosure. XRPD was tested before and after formulation.

[6] = Grinding stability (manual grinding 5 minutes in a mortar, XRPD); conditions: ground manually 5 minutes in a mortar
Procedure: Form CSII was grounded manually for 5 minutes in a mortar. XRPD was tested before and after the grinding.
Form CSIII was grounded manually for 5 minutes in a mortar. XRPD was tested before and after the grinding.
Form CSIV was grounded manually for 5 minutes in a mortar. XRPD was tested before and after the grinding.

[7] = 25° C./60% RH, 6 months, open package
[8] = 40° C./75% RH, 2 months, open package
[9] = 40° C./75% RH, 6 months, open package
[10] = 60° C./75% RH, 1 month, open package
[11] = Initial, ICH Q3A (R2) thresholds

For `C=CC(=O)N1CCC[C@@H](n2c(=O)n(-c3ccc(Oc4ccccc4)cc3)c3c(N)nccc32)C1` [Amorphous, (R)-1-(1-acryloylpiperidin-3-yl)-4-amino-3-(4-phenoxyphenyl)-1H-imidazo[4,5-c] pyridin-2(3H)-one, reference compound], the Purity [1, 7] was 99.57%, the Purity change [1, 7] was −0.23% and the Solid form [1, 7] was “Amorphous”. The “The number of the purities exceeding the qualification thresholds” value (shortened to “The number”) [1, 7] was 1, the “Chemical purity after storage (in words)” value ([1]; 25° C./60% RH, 40° C./75% RH, listed as prior art amorphous form) was “decreased significantly” and the “Chemical purity after storage (in words)” value ([1]; 25° C./60% RH, 40° C./75% RH, listed as prior art solid) was “decreases significantly”. It also gave a Purity decrease ([1]; 40° C./75% RH, 2 months) of 2.18%, a Purity [1, 8] of 97.62% and a Purity change [1, 8] of −2.18%. For the same compound, the Solid form [1, 8] was “Amorphous”, the Purity decrease ([1]; 40° C./75% RH, 6 months) was 3.46% and the Purity [1, 9] was 96.34%. The Purity change [1, 9] was −3.46%, the Solid form [1, 9] was “Amorphous” and the “The number” value [1, 9] was 4. For the same compound, the “The number” value ([1]; 40° C./75% RH, 6 months, open package, listed as prior art amorphous form) was “four”, the “The number” value ([1]; 40° C./75% RH, 6 months, open package, listed as prior art solid) was “four” and the Purity decrease ([1]; 60° C./75% RH, 1 month) was “over 6.3%”. For the same compound, the Purity [1, 10] was 93.48%, the Purity change [1, 10] was −6.32% and the Solid form [1, 10] was “Amorphous”. The “The number” value [1, 10] was 4, the “The number” value ([1]; 60° C./75% RH, 1 month, open package, listed as prior art amorphous form) was “four” and the “The number” value ([1]; 60° C./75% RH, 1 month, open package, listed as prior art solid) was “four”. For the same compound, the Purity ([1]; Initial) was 99.80%, the Solid form ([1]; Initial) was “Amorphous” and the “The number” value [1, 11] was 1. For the same compound, the Purity change [2] was −1.16%, the “Chemical purity (in words)” value ([2]; listed as amorphous form) was “significant degradation” and the “Weight gain at 80% RH” value ([3]; 80% RH, listed as Prior art solid) was 3.69%. The “Weight gain at 80% RH” value ([3]; 80% RH, listed as The prior art amorphous form) was 3.69%, the “Weight gain at 80% RH” value ([3]; 80% RH, listed as prior art amorphous form) was 3.69% and the “Weight gain at 80% RH” value ([3]; 80% RH, listed as prior art solid) was 3.69%. The Hygroscopicity class ([3]; listed as prior art amorphous form) was “hygroscopic”, the Hygroscopicity class ([3]; listed as prior art solid) was “hygroscopic” and the Purity change [4] was −0.11%. For the same compound, the “Chemical purity (in words)” value ([4]; listed as amorphous form) was “significant degradation”.
In the case of `C=CC(=O)N1CCC[C@@H](n2c(=O)n(-c3ccc(Oc4ccccc4)cc3)c3c(N)nccc32)C1` [Form CSII, (R)-1-(1-acryloylpiperidin-3-yl)-4-amino-3-(4-phenoxyphenyl)-1H-imidazo[4,5-c] pyridin-2(3H)-one], the “Chemical purity during storage” value ([1]; 25° C./60% RH) is reported as “above 99.8%”, the “Time for which the crystalline state doesn't change / form is stable” value ([1]; 25° C./60% RH) is reported as “at least 6 months” and the Purity [1, 7] is reported as 99.89%. For the same compound, the Purity change [1, 7] was “+0.03%”, the “The number” value [1, 7] was 0 and the “Time for which the crystalline state doesn't change / form is stable” value ([1]; 40° C./75% RH) was “at least 6 months”. For the same compound, the “Chemical purity during storing” value ([1]; 40° C./75% RH and 60° C./75% RH) was “above 99.8%”, the Purity [1, 9] was 99.87% and the Purity change [1, 9] was “+0.01%”. For the same compound, the “The number” value [1, 9] was 0, the “Time for which the crystalline state doesn't change” value ([1]; 60° C./75% RH) was “at least 1 month” and the “Solid form and purity after storage” value ([1]; 60° C./75% RH, 1 month) was “remained basically unchanged”. The Purity [1, 10] was 99.82%, the Purity change [1, 10] was −0.04% and the “The number” value [1, 10] was 0. For the same compound, the Purity ([1]; Initial) was 99.86%, the “The number” value [1, 11] was 0 and the “Impurity content versus qualification threshold” value ([1]; throughout the stability investigation processes) was “did not exceed the qualification thresholds; also recorded: did not exceed the qualificated threshold”. For the same compound, the “Time for which chemical purity remains substantially unchanged” value [2] was “at least 2 days”, the “Chemical purity (in words)” value [2] was “basically remained unchanged” and the Purity change [2] was “+0.01%”. The “Weight gain relative to that of the prior art” value ([3]; 80% RH) was “⅙”, the “Weight gain at 80% RH” value ([3]; 80% RH) was 0.60% and the “Crystalline state after the DVS test” value ([3]; XRPD before and after DVS) was “remained unchanged”. For the same compound, the Hygroscopicity class [3] was “slightly hygroscopic”, the Purity change [4] was −0.02% and the “Chemical purity (in words)” value [4] was “basically remained unchanged”. For the same compound, the “Time for which there is no change in the purity” value [4] was “at least 1 week”, the “Crystalline state after formulation process (mixed with excipients, tableted)” value [5] was “remained unchanged; also recorded: did not change” and the “Crystalline state after grinding” value [6] was “remains unchanged”.
